Reference: ChEMBL document CHEMBL1201862, “PubChem BioAssay data set” (2004)
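Growth conditions: 96-well plates. Treatment: test compound, 48 hours, 5 concentrations. Analysis: linear interpolation between bracketing concentrations; unreached endpoints set to highest concentration. GI50 is the concentration that inhibits growth by half.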 Active and inactive are the calls of the source. Cut-off read from the data, not from the text of the source: active = GI50 up to about 1.1 µM and inactive = higher.

Experiments:
Test in all cases: NCI-60 cell line screen, 48 h
[1] = system: HCC 2998
[2] = system: MCF7
[3] = system: NCI-H460
[4] = system: TK-10
[5] = system: SNB-75
[6] = system: K562
[7] = system: MOLT-4
[8] = system: KM12
[9] = system: UO-31
[10] = system: 786-0
[11] = system: LOX IMVI
[12] = system: RPMI-8226
[13] = system: DU-145
[14] = system: SN12C
[15] = system: IGROV-1
[16] = system: SK-OV-3
[17] = system: SNB-19
[18] = system: HCT-116
[19] = system: HL-60

Measured: GI50

O=c1oc2ccccc2cc1-c1cn2ccccc2n1
inactive: [1] 20.1 µM | [2] 13.8 µM | [3] 4.16 µM | [4] 8.02 µM | [5] 2.47 µM | [6] 10.2 µM | [7] 18.6 µM | [8] 10.5 µM | [9] 2.36 µM | [10] 3.8 µM | [11] 12.6 µM | [12] 10.4 µM | [13] 7.82 µM | [14] 4.6 µM | [15] 7.05 µM | [16] 4.01 µM | [17] 3.32 µM | [18] 10.1 µM

CCC(CC)(CO)CNc1cc(Cl)nc(N)n1
inactive: [2] > 100 µM | [3] > 100 µM | [4] > 100 µM | [5] > 100 µM | [6] > 100 µM | [7] > 100 µM | [8] > 100 µM | [9] > 100 µM | [10] > 100 µM | [11] > 100 µM | [12] 92.9 µM | [13] > 100 µM | [14] > 100 µM | [19] > 100 µM | [15] > 100 µM | [16] > 100 µM | [18] > 100 µM

CN1CCN(Cc2ccc(C(=S)Nc3ccccc3)s2)CC1
inactive: [1] 33.1 µM | [2] 41.9 µM | [3] 36.4 µM | [6] 25.9 µM | [7] 36.8 µM | [8] 36.3 µM | [9] 36.3 µM | [10] 31.9 µM | [11] 15.7 µM | [12] 28.6 µM | [13] > 100 µM | [19] 19.9 µM | [15] 10.4 µM | [16] 86.1 µM | [17] > 100 µM | [18] 42.5 µM

O=S(=O)(Nc1ccc2ccc3cccc4ccc1c2c34)c1ccccc1
inactive: [2] 43.4 µM | [3] 37.3 µM | [4] 38.2 µM | [5] 55.7 µM | [6] 6.7 µM | [7] 8.77 µM | [8] 9.98 µM | [9] 35.1 µM | [10] 29 µM | [11] 40.6 µM | [12] 6.34 µM | [13] > 100 µM | [14] 15 µM | [19] 37.7 µM | [15] 18.7 µM | [16] 58.3 µM | [17] 85.5 µM | [18] 30.8 µM

CC(=O)N1C(C(=O)NN2CCOCC2)CSC1c1ccccc1 (stereo unspecified)
inactive: [1] > 100 µM | [2] > 100 µM | [3] > 100 µM | [4] > 100 µM | [5] > 100 µM | [6] > 100 µM | [7] > 100 µM | [8] > 100 µM | [9] > 100 µM | [10] > 100 µM | [11] > 100 µM | [12] > 100 µM | [13] > 100 µM | [14] > 100 µM | [15] > 100 µM | [16] > 100 µM | [17] > 100 µM | [18] > 100 µM

O=C(CC(Cl)=C(Cl)Cl)c1ccccc1
inactive: [2] > 100 µM | [3] > 100 µM | [4] > 100 µM | [5] > 100 µM | [6] 21.5 µM | [7] 12.3 µM | [8] 53.1 µM | [9] 80.2 µM | [10] 21.8 µM | [11] 15 µM | [12] 18 µM | [13] > 100 µM | [19] 55.8 µM | [15] 80 µM | [16] > 100 µM | [17] > 100 µM | [18] 21.3 µM

Cc1ccc(S(=O)(=O)NC(=O)N[C@@H](Cc2c[nH]cn2)C(=O)O)cc1
inactive: [2] > 100 µM | [3] > 100 µM | [4] > 100 µM | [5] > 100 µM | [6] > 100 µM | [7] > 100 µM | [8] > 100 µM | [9] > 100 µM | [10] > 100 µM | [11] > 100 µM | [12] 37.3 µM | [13] > 100 µM | [14] > 100 µM | [19] > 100 µM | [15] > 100 µM | [16] > 100 µM | [17] > 100 µM | [18] > 100 µM

CCC1=CCC23C(=O)C=CC(=O)C2(C1)C(=O)c1cccc(OC)c1C3=O (stereo unspecified)
inactive: [2] 14.3 µM | [3] 28.2 µM | [4] 19.1 µM | [5] 15.6 µM | [6] 12.9 µM | [7] 3.87 µM | [8] 20.9 µM | [9] 10.8 µM | [10] 11.9 µM | [11] 15.1 µM | [12] 4.41 µM | [13] 16.9 µM | [14] 18.3 µM | [19] 2.73 µM | [15] 13 µM | [17] 23.8 µM | [18] 14.6 µM

O=C(N/N=C/c1ccc([N+](=O)[O-])o1)c1ccc(C(=O)N/N=C/c2ccc([N+](=O)[O-])o2)cc1
inactive: [2] 15.7 µM | [5] > 100 µM | [6] 34.4 µM | [7] 23.8 µM | [8] 28.5 µM | [9] > 100 µM | [10] 76.2 µM | [11] 34.2 µM | [12] 2.55 µM | [13] 64.4 µM | [14] 42.8 µM | [19] 21.7 µM | [15] 30.7 µM | [16] > 100 µM | [17] 51.4 µM | [18] 30.1 µM

CCOC(=O)c1cc2cc3c4c(c2oc1=O)CCCN4CCC3
inactive: [1] 78.9 µM | [2] 23.2 µM | [3] 48.3 µM | [4] 21.6 µM | [6] 38.3 µM | [7] 25.8 µM | [8] 23.8 µM | [9] 25.9 µM | [10] 40 µM | [11] 26.1 µM | [12] 19.3 µM | [13] 31.6 µM | [14] 30.8 µM | [19] 16.9 µM | [15] 27.2 µM | [17] 42.6 µM | [18] 27 µM

CC(C)[Si](OC1=C(C(=O)N(C)c2ccccc2Cl)CCCC1)(C(C)C)C(C)C
inactive: [1] 13.6 µM | [2] 13.2 µM | [3] 12.9 µM | [4] 15.1 µM | [5] 14.3 µM | [6] 6.15 µM | [7] 14.1 µM | [8] 14.2 µM | [9] 14.5 µM | [10] 17.1 µM | [11] 15.7 µM | [12] 10.3 µM | [13] 10.6 µM | [15] 16.9 µM | [16] 14.7 µM | [17] 12.8 µM

CN(C)CCCN1c2ccccc2C(C)(C)c2ccccc21 [DIMETACRINE]
inactive: [2] 14.8 µM | [3] 13.6 µM | [4] 14.2 µM | [5] 10.9 µM | [6] 13.3 µM | [7] 13.7 µM | [8] 14.1 µM | [9] 13.9 µM | [10] 14.4 µM | [11] 15.1 µM | [12] 13.1 µM | [13] 15.9 µM | [14] 14.4 µM | [19] 15.1 µM | [15] 17.9 µM | [16] 13.9 µM | [17] 15.5 µM | [18] 14.8 µM
